Patent publication US20200061018A1, “METHODS AND COMPOSITIONS FOR TREATING PARKINSON'S DISEASE” (Cove Bio LLC, priority 2016, published 2020)

Test system: patient with Parkinson's disease, positive for Malassezia infection
Experiment: Example 3: Parkinson's patient positive for Malassezia infection given intravenous amphotericin B deoxycholate plus intranasal saline irrigation
Assay type: in vivo, human
Details: i.v. 1.0 mg/kg/day for 3 weeks in combination with intranasal aqueous saline solution, follow-up 6 months after the course
Procedure: A patient is clinically evaluated by a physician for deterioration of health because of their progression of symptoms of Parkinson's disease which include tremor, speech dysfunction, aberrant personality changes, abulia, and difficulties with mentation. Patient has no overt symptoms of Malassezia infection. […] Patient is treated with an intravenous administration of a commercially available amphotericin formulation of amphotericin B deoxycholate at 1.0 mg/kg/day in combination with a twice daily treatment regimen of intranasal aqueous saline solution. The solution comprises a mixture of 1 teaspoon of baking soda, 1.5 teaspoons of salt, and 1 quart sterilized distilled water. The solution is administered intranasally using a pulsating irrigation device. The pulsating irrigation device sends a gentle pulse of the solution into the nose via a nasal irrigation tip that can reach into and contact with the upper nasal passages. The amphotericin B treatment regimen is discontinued after 3 weeks. The total amount of amphotericin B administered to the patient over the course of treatment is about 1.8 grams. The nasal wash is continued to be administered to the patient indefinitely on a once daily basis. Routine follow-up is conducted by the physician 6 months after completion of the amphotericin B treatment course.

Substance: amphotericin B deoxycholate
- caregiver report of symptoms: improved mood, improved affect, decreased fatigue, decreased abulia, and improved mentation
- progression of Parkinson's disease measured with the MDS-UPDRS (person): halted
